ChEMBL document CHEMBL4680145, “Expansion of chemical space based on a pyrrolo[1,2-a]pyrazine core: Synthesis and its anticancer activity in prostate cancer and breast cancer cells” (Eur J Med Chem, 2020)
pIC50: −log10 of the molar value. Calls of active or inactive are those of the source. The calls are words filed in the database; no cut-off is given here.

Tests used:
MCF7 [1] = test: Antimigratory activity against human MCF7 cells assessed as reduction in cell migration measured every 2 hrs for 24 hrs by wound healing assay; assay type: functional, cell-based; conditions: dose 1-10 µM
MCF7 [2] = test: Induction of apoptosis in human MCF7 cells assessed as increase in caspase-3 activity incubated for 24 hrs by caspase-3 substrate and Hoechst 33342 dye based fluorescence assay; assay type: functional, cell-based; conditions: dose 1-10 µM
MCF7 [3] = test: Cytotoxicity against human MCF7 cells assessed as reduction cell viability incubated for 48 hrs by MTS assay; assay type: functional, cell-based; conditions: MCF7, 48 h
MCF7 [4] = test: Induction of apoptosis in human MCF7 cells assessed as increase in caspase-3 activity at 10 uM incubated for 24 hrs by Hoechst 33342 staining based fluorescence microscopy; assay type: functional, cell-based
PC-3 [5] = test: Induction of apoptosis in human PC-3 cells assessed as increase in cleaved PARP incubated for 24 hrs by Western blot analysis; assay type: functional, cell-based; conditions: dose 3-30 µM
PC-3 [6] = test: Cytotoxicity against human PC-3 cells assessed as cell viability at 30 uM incubated for 48 hrs by MTS assay relative to control; assay type: functional; conditions: read-out: Activity
PC-3 [7] = test: Antimigratory activity against human PC-3 cells assessed as reduction in cell migration measured every 2 hrs for 24 hrs by wound healing assay; assay type: functional, cell-based; conditions: dose 1-10 µM
MCF7 [8] = test: Induction of apoptosis in human MCF7 cells assessed as increase in caspase-3 activity at 10 uM incubated for 24 hrs in presence of Ac-DEVD-CHO by Hoechst 33342 dye based fluorescence assay; assay type: functional, cell-based
PC-3 [9] = test: Induction of apoptosis in human PC-3 cells assessed as increase in caspase-3 activity incubated for 24 hrs by caspase-3 substrate and Hoechst 33342 dye based fluorescence assay; assay type: functional, cell-based; conditions: dose 1-10 µM
PC-3 [10] = test: Induction of apoptosis in human PC-3 cells assessed as increase in caspase-3 activity at 10 uM incubated for 24 hrs in presence of Ac-DEVD-CHO by Hoechst 33342 dye based fluorescence assay; assay type: functional, cell-based
MCF7 [11] = test: Cytotoxicity against human MCF7 cells assessed as cell viability at 30 uM incubated for 48 hrs by MTS assay relative to control; assay type: functional; conditions: read-out: Activity
PC-3 [12] = test: Induction of apoptosis in human PC-3 cells assessed as increase in caspase-3 activity at 10 uM incubated for 24 hrs by Hoechst 33342 staining based fluorescence microscopy; assay type: functional, cell-based
MCF7 [13] = test: Induction of apoptosis in human MCF7 cells assessed as increase in cleaved PARP incubated for 24 hrs by Western blot analysis; assay type: functional, cell-based
PC-3 [14] = test: Cytotoxicity against human PC-3 cells assessed as reduction in cell viability incubated for 48 hrs by MTS assay; assay type: functional, cell-based; conditions: PC-3, 48 h

| Structure (SMILES) | viability at 30 µM (PC-3 [6]) [%] | viability at 30 µM (MCF7 [11]) [%] | further results |
| --- | --- | --- | --- |
| O=C(C[N+]1=Cc2cccn2[C@H](C(=O)c2ccc(Br)cc2)[C@H]1c1ccccc1)c1ccccc1 (relative stereo) | 9.1 | 25.5 | inhibition (MCF7 [1]): Dose-dependent effect; Activity (MCF7 [2]): Dose-dependent effect; pIC50 (MCF7 [3]): 5.44; Activity (MCF7 [4]): Active; Activity (PC-3 [5]): Dose-dependent effect; inhibition (PC-3 [7]): Dose-dependent effect; Activity (MCF7 [8]): inactive; Activity (PC-3 [9]): Dose-dependent effect; Activity (PC-3 [10]): inactive; Activity (PC-3 [12]): Active; Activity (MCF7 [13]): Dose-dependent effect; pIC50 (PC-3 [14]): 5.46 |
| O=C(c1ccc(F)cc1)[C@@H]1[C@@H](c2ccccc2)N=Cc2cccn21 (relative stereo) | 76 | 70.3 |  |
| O=C(c1ccc(Br)cc1)c1c(-c2ccccc2)ncc2cccn12 | 5.8 | 37 | pIC50 (PC-3 [14]): 5.14 |
| Cc1ccc([C@H]2N=Cc3cccn3[C@@H]2C(=O)c2ccccc2)cc1 (relative stereo) | 108 | 108 |  |
| O=C(c1ccccc1)[C@@H]1[C@@H](c2ccc(Cl)cc2)N=Cc2cccn21 (relative stereo) | 84.8 | 102 |  |
| COc1cccc(C(=O)[C@@H]2[C@@H](c3ccccc3)N=Cc3cccn32)c1 (relative stereo) | 104 | 104 |  |
| CCOC(=O)C[N+]1=Cc2cccn2[C@H](C(=O)c2ccc(Br)cc2)[C@H]1c1ccccc1 (relative stereo) | 10.7 | 24 | pIC50 (PC-3 [14]): 5.06 |
| O=C(c1ccc(Cl)cc1)[C@@H]1[C@@H](c2ccc[nH]2)N=Cc2cccn21 (relative stereo) | 102 | 102 |  |
| COc1ccc(C(=O)[C@@H]2[C@@H](c3ccc(OC)c(OC)c3)N=Cc3cccn32)cc1 (relative stereo) | 102 | 98 |  |
| COc1ccc([C@H]2N=Cc3cccn3[C@@H]2C(=O)c2ccc(Br)cc2)cc1 (relative stereo) | 28.6 | 39.8 | pIC50 (PC-3 [14]): 4.69 |
| COc1ccc(C(=O)C[N+]2=Cc3cccn3[C@H](C(=O)c3ccc(Br)cc3)[C@H]2c2ccccc2)cc1 (relative stereo) | 56 | 54.5 |  |
| O=C(c1ccccc1)[C@@H]1[C@@H](c2cc3ccccc3[nH]2)N=Cc2cccn21 (relative stereo) | 92.1 | 106 |  |
| O=C(c1ccc(Br)cc1)[C@@H]1[C@@H](c2ccco2)N=Cc2cccn21 (relative stereo) | 99.2 | 96.5 |  |
| COc1ccc(C(=O)[C@@H]2[C@@H](c3ccco3)N=Cc3cccn32)cc1 (relative stereo) | 55.7 | 99.9 |  |
| Cc1ccc([C@H]2N=Cc3cccn3[C@@H]2C(=O)c2ccc(F)cc2)cc1 (relative stereo) | 99.8 | 111 |  |
| O=C(c1ccc(Cl)cc1)[C@@H]1[C@@H](c2ccccc2)N=Cc2cccn21 (relative stereo) | 99.9 | 99.3 |  |
| COc1ccc([C@H]2N=Cc3cccn3[C@@H]2C(=O)c2ccc(F)cc2)cc1OC (relative stereo) | 96.7 | 72.8 |  |
| COc1ccc([C@H]2N=Cc3cccn3[C@@H]2C(=O)c2cccc(OC)c2)cc1 (relative stereo) | 83.8 | 77.9 |  |
| O=C(c1ccc(F)cc1)[C@@H]1[C@@H](c2ccco2)N=Cc2cccn21 (relative stereo) | 99.4 | 70 |  |
| Cc1ccc([C@H]2N=Cc3cccn3[C@@H]2C(=O)c2ccc(Br)cc2)cc1 (relative stereo) | 99 | 99.9 |  |
| COc1cccc(C(=O)[C@@H]2[C@@H](c3ccc(Cl)cc3)N=Cc3cccn32)c1 (relative stereo) | 99.6 | 118 |  |
